Measurements published in paper PMC9367663 (Journal of Enzyme Inhibition and Medicinal Chemistry, 2022).
Read-outs that look alike come from different tables or passages of the source.

System: VSV*ΔG(Luc)-S virus harbouring the spike from the D614G variant
Type: cell-based, SARS-CoV-2

`On1ccccc1=S` [a, 1-hydroxy-2(1H)-pyridinethione] was tested, and the “inhibition of viral entry” value (0.5 µM) was 15.33%, the “inhibition of viral entry” value (1 µM) was 16.67% and the “inhibition of viral entry” value (10 µM) was 74.34%. The “inhibition of viral entry” value (30 µM) was 86.41% and the IC50 (read-out: IC50 viral entry) was 5.19 µM.
